Data: ChEMBL document CHEMBL1828625, “4-benzimidazolyl-3-phenylbutanoic acids as novel PIF-pocket-targeting allosteric inhibitors of protein kinase PKCζ” (J Med Chem, 2011)
One block for each molecule: values may come before it. Activity calls are given as the source filed them. The rule behind the calls is not given here.

Columns and labels:
[1] = target: T1, Protein kinase C zeta type (Homo sapiens, UniProt Q05513); assay: Inhibition of human PKCzeta assessed as [gamma32P]ATP utilization using myelin basic protein as substrate
T1 sequence (Q05513 whole entry): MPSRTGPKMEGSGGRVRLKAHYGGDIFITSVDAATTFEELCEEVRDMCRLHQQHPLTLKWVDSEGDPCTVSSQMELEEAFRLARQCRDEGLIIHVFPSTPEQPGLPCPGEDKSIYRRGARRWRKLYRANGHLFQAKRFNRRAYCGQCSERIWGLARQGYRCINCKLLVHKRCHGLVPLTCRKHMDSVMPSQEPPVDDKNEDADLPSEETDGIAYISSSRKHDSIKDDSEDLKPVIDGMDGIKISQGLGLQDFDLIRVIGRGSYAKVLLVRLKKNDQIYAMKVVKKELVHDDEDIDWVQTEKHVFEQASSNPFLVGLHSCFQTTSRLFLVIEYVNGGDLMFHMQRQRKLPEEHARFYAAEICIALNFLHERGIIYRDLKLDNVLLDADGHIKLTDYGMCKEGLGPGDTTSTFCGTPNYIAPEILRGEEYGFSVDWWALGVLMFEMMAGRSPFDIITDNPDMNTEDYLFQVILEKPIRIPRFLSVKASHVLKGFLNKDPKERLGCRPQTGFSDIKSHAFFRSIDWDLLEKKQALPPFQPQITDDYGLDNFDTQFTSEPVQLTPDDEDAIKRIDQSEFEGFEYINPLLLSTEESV

[2] = target: T1, Protein kinase C zeta type; assay: Inhibition of PKCzeta in human U937 cells assessed as inhibition of TNF-alpha-induced NF-kB activation by luciferase reporter gene assay; format: cell-based, U-937
[3] = target: T2, Serine/threonine-protein kinase Sgk1 (Homo sapiens) (UniProt O00141); assay: Inhibition of SGK at 50 uM
T2 sequence (whole entry): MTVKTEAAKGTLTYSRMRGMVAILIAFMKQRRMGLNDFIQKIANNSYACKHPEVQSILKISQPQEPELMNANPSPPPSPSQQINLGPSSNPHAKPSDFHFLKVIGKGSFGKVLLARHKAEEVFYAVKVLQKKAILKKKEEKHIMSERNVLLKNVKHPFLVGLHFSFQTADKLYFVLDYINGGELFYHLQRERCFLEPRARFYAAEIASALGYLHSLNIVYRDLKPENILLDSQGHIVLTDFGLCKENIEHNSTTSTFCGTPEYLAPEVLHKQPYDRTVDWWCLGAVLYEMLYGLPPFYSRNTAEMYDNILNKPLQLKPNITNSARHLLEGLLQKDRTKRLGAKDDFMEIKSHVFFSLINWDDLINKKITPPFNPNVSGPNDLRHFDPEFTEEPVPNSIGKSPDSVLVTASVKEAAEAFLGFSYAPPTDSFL

[4] = target: Serine/threonine-protein kinase N2 (Homo sapiens) (UniProt Q16513); assay: Inhibition of PRK2 at 50 uM
Sequence of Serine/threonine-protein kinase N2 (Homo sapiens) (Q16513 whole entry, looked up): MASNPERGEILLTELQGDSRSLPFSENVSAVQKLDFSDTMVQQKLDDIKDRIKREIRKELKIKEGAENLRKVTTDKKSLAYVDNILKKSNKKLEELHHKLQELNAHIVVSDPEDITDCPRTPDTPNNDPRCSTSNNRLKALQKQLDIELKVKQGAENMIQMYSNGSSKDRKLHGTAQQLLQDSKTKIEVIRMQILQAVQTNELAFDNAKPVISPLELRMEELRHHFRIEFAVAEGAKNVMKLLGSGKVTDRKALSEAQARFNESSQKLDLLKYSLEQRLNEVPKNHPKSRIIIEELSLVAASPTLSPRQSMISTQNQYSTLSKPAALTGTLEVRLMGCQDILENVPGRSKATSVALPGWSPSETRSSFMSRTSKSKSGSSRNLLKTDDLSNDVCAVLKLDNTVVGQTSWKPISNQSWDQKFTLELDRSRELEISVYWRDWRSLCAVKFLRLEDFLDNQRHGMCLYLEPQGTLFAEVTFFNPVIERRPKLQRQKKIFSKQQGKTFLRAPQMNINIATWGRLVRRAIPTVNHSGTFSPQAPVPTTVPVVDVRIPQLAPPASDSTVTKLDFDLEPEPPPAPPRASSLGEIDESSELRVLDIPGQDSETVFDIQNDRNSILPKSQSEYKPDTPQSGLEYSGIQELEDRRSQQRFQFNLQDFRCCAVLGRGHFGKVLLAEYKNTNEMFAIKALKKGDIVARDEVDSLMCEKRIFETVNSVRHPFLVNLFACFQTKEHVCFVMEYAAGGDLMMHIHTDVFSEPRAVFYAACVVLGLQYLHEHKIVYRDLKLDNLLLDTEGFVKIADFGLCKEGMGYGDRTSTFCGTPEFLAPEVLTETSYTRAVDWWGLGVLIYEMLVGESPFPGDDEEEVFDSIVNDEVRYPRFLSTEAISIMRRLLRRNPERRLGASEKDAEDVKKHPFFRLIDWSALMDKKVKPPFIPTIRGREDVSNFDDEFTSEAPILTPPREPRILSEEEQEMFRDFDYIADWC

[5] = target: T3, Protein kinase C iota type (Homo sapiens) (UniProt P41743); assay: Inhibition of PKCiota at 200 uM
T3 sequence (whole entry): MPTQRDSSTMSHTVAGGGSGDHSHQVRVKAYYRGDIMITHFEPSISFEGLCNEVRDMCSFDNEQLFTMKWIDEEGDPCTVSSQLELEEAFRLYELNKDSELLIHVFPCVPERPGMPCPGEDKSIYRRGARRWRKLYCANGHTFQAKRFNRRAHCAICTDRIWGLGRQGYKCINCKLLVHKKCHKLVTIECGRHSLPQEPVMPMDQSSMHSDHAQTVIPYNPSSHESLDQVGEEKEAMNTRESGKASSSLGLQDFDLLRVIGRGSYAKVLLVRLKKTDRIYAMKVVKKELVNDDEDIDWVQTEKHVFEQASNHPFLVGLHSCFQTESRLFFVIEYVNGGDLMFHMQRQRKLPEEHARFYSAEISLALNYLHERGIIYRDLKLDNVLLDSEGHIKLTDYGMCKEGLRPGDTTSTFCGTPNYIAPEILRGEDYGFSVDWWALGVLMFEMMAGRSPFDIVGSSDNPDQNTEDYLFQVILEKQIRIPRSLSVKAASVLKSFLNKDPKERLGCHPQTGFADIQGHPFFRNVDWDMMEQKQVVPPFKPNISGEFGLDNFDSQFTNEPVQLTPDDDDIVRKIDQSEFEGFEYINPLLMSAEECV

[6] = target: T3, Protein kinase C iota type (Homo sapiens); assay: Inhibition of PKCiota at 50 uM
[7] = target: RAC-alpha serine/threonine-protein kinase (Homo sapiens) (UniProt P31749); assay: Inhibition of PKB-alpha at 50 uM
Sequence of RAC-alpha serine/threonine-protein kinase (Homo sapiens) (P31749 whole entry): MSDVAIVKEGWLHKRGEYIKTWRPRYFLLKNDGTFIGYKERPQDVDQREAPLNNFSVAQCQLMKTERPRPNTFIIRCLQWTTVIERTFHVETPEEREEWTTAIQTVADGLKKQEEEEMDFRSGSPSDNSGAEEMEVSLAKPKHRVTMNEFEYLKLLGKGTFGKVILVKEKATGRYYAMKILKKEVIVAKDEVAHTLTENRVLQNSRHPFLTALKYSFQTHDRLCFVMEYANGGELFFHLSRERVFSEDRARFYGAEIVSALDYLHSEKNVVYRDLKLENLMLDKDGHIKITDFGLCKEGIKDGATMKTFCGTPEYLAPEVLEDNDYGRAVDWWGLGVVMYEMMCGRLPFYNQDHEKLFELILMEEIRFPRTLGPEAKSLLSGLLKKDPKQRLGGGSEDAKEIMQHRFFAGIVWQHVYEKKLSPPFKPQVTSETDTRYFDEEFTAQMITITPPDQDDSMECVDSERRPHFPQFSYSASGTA

[8] = Inhibition of PKA at 50 uM
[9] = target: Ribosomal protein S6 kinase beta-1 (Homo sapiens) (UniProt P23443); assay: Inhibition of S6K1 at 50 uM
Sequence of Ribosomal protein S6 kinase beta-1 (Homo sapiens) (P23443 whole entry, looked up): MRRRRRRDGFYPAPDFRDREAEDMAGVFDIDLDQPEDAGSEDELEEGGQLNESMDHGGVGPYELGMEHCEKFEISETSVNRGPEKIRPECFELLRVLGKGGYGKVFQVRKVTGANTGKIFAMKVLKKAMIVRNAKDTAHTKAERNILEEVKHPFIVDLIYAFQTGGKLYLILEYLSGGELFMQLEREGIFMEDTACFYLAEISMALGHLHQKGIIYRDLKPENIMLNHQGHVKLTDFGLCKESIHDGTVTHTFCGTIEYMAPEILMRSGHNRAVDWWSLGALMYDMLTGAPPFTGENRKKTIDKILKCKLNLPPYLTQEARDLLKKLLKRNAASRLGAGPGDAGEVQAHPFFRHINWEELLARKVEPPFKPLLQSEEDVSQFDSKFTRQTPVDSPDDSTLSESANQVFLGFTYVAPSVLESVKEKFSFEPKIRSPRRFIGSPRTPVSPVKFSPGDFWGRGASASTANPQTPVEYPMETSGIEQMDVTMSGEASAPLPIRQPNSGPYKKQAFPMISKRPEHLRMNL

[10] = target: 3-phosphoinositide-dependent protein kinase 1 (Homo sapiens) (UniProt O15530); assay: Activation of PDK1 at 50 uM
Sequence of 3-phosphoinositide-dependent protein kinase 1 (Homo sapiens) (O15530 whole entry, looked up): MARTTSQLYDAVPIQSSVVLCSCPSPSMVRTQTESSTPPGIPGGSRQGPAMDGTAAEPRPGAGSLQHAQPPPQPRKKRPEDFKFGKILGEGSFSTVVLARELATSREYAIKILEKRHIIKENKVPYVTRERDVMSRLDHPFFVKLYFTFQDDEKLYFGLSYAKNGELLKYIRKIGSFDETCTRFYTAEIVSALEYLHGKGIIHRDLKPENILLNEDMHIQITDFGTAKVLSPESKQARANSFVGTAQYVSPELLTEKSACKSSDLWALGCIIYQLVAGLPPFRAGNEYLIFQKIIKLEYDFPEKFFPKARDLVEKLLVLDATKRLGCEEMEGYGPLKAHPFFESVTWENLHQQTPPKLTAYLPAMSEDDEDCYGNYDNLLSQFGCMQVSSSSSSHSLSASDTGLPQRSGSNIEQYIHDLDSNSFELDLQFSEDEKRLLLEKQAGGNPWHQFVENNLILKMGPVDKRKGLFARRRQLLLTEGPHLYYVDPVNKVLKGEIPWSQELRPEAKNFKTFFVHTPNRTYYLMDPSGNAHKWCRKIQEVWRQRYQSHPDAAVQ

IC50 [1]: 23 µM
IC50 [2]: 13 µM
SMILES: CC(C)(C)c1ccc(C(CC(=O)O)Cc2nc3ccc(I)cc3[nH]2)cc1 (racemic)

inhibition [3]: 30%
SMILES: CC(C)(C)c1ccc(C(CC(=O)O)Cc2nc3cc(I)ccc3[nH]2)cc1 (racemic)

inhibition [4]: Active
inhibition [5]: inactive
inhibition [6]: inactive
inhibition [7]: Active
inhibition [8]: Active
inhibition [9]: 60%
inhibition [3]: Active
SMILES: CCCc1ccc(C(CC(=O)O)Cc2nc3cc(I)ccc3[nH]2)cc1 (racemic)

inhibition [9]: 60%
SMILES: O=C(O)CC(Cc1nc2cc(-c3ccccc3)ccc2[nH]1)c1ccc(Cl)cc1 (racemic)

fold change (FC) [10]: 3
SMILES: O=C(O)CC(Cc1nc2cc(Cl)c(F)cc2[nH]1)c1ccc(Cl)cc1 (racemic)

fold change (FC) [10]: 3
SMILES: O=C(O)CC(Cc1nc2cc(Cl)ccc2[nH]1)c1ccc(Cl)cc1Cl (racemic)
